Test results: patent US11884627B2, “Compounds and compositions for treating conditions associated with LPA receptor activity” (Lhotse Bio, Inc., priority 2022, dated 2024)
Where two headings read alike, the source gives them in different places.

Biological target: T1, human LPA1 (Homo sapiens, UniProt Q92633)
T1 construct: expressed in transfected cells; host or cells: CHO-K1
Test: In vitro LPA1 calcium flux antagonist assay - Bioduro protocol
Type: cell-based
Conditions: CHO-K1 cells overexpressing human LPA1 and G15a, LPA challenge at EC80
Method: In Vitro LPA1 Calcium Flux Antagonist Assay—Bioduro Protocol
CHO-K1 cells overexpressing human LPA1 and G15a were seeded at a total volume of 20 μL (15000 cells/well) into Matrigel pre-coated 384-well plates (corning −3764) and incubated at 37° C. After overnight incubation, the cells were serum starved for 4 h. Assays were performed in dye loading buffer containing 1× Fluo-8 AM (AAT Bioquest, 21080) and 2.5 mM probenecid (Thermo Fisher, 36400) in HBSS/20 mM Hepes. After cell starvation, the medium was replaced with 20 μL of dye loading buffer and incubated at 37° C., for 30 min. Then 5 μL of 5× compound titrated in dye loading buffer was added to the cells and incubated for 30 min followed by LPA challenge at EC80. Calcium mobilization was measured on a FLIPR Tetra (MSD). For LPA EC80 determination, starved cells were incubated with 20 μL of dye loading buffer for 1 h, then 5 μL of 5×LPA titrated in dye loading buffer was added to the cells. Calcium signals induced by LPA was monitors on a FLIPR.
Percentage inhibition is calculated using the following formula: % Inhibition=100%×(1−(mean RFU of test sample−mean RFU of DMSO)/(mean RFU of LPA control−mean RFU of DMSO)).
Table B3 and Table B4 show the biological activity of compounds in in vitro LPA1 Calcium flux antagonist assay—Bioduro protocol.

[1] = calcium mobilization on FLIPR Tetra, read-out: IC50
[2] = Table B3, read-out: Activity (IC50 class)

T1 sequence (Q92633 whole entry): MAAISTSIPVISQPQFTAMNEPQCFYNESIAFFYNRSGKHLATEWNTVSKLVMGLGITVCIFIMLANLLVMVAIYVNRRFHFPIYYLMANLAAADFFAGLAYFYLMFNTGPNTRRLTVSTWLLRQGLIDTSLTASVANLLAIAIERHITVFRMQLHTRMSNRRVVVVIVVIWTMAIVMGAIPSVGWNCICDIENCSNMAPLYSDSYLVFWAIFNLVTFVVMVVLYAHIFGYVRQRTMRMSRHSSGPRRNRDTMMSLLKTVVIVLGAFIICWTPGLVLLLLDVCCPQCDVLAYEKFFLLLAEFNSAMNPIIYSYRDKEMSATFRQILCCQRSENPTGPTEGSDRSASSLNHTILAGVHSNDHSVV

| IC50 [1] [nM] | IC50 [2] [nM] | SMILES |
| --- | --- | --- |
| 79.8 | < 100 | CCc1c(-c2ccc(OC3(C(=O)O)CCOCC3)cc2COC2CCCC2)cc(OC)c(C)c1OC [Compound 194] |
| 760 | > 1000 | COC(=O)N1CC(Nc2ccc(-c3cc(OC)c(C)c(OC)c3C)c(COC3CCCC3)c2)(C(=O)O)C1 [Compound 195] |
| 30.1 | < 100 | COc1cc(-c2ccc(NC3(C(=O)O)CC(OC)C3)cc2COC2CCCC2)c(C)c(OC)c1C (stereo not drawn) [Compound 196] |
| 12.5 | < 100 | COc1cc(-c2ccc(NC3(C(=O)O)CC(OC)C3)cc2COC2CCCC2)c(C)c(OC)c1C (stereo not drawn) [Compound 197] |
| 232 | 100 to 1000 | COc1cc2c(c(-c3ccc(NC4(C(=O)O)CCOCC4)cc3COC3CCCC3)c1)CCO2 [Compound 198] |
| 3210 | > 1000 | COc1cc2c(c(-c3ccc(NC4(C(=O)O)CCOCC4)cc3COC3CCCC3)c1)OCO2 [Compound 199] |
| > 10000 | > 1000 | COc1cc(OC)cc(-c2ccc(NC3(C(=O)O)CCOCC3)cc2CCN2CCCC2=O)c1 [Compound 202] |
| 26 | < 100 | CCc1c(-c2ccc(NC3(C(=O)O)CCOCC3)cc2COC2CCCC2)cc(OC)c(C)c1OC [Compound 203] |
| 1260 | > 1000 | COc1cc(-c2ccc(NC3(C(=O)O)CCC(OC)CC3)cc2COC2CCCC2)cc(OC)c1C (stereo not drawn) [Compound 205] |
| 476 | 100 to 1000 | COc1cc(-c2ccc(NC3(C(=O)O)CCC(O)CC3)cc2COC2CCCC2)cc(OC)c1C (stereo not drawn) [Compound 206] |
| 30.4 | < 100 | COc1cc(-c2ccc(NC3(C(=O)O)CCOCC3)cc2COC2CCCC2)c(Cl)c(OC)n1 [Compound 207, 4-((4-(3-chloro-2,6-dimethoxypyridin-4-yl)-3-((cyclopentyloxy)methyl)phenyl)amino)tetrahydro-2H-pyran-4-carboxylic acid] |
| 56.4 | < 100 | COC(=O)NC1CCC(Nc2ccc(-c3cc(OC)c(C)c(OC)c3)c(COC3CCCC3)c2)(C(=O)O)CC1 (stereo not drawn) [Compound 208] |
| 15.5 | < 100 | COc1cc(-c2ccc(OC3(C(=O)O)CCOCC3)cc2COC2CCCC2)c(F)c(OC)c1C [Compound 209, 4-((2-((cyclopentyloxy)methyl)-2′-fluoro-3′,5′-dimethoxy-4′-methyl-[1,1′-biphenyl]-4-yl)oxy)tetrahydro-2H-pyran-4-carboxylic acid] |
| > 10000 | > 1000 | COC(=O)N1CCCC(Nc2cc(C)c(-c3cc(OC)cc(OC)c3)c(COC3CCCC3)c2)(C(=O)O)C1 (stereo not drawn) [Compound 210] |
| > 10000 | > 1000 | COC(=O)N1CCCC(Nc2cc(C)c(-c3cc(OC)cc(OC)c3)c(COC3CCCC3)c2)(C(=O)O)C1 (stereo not drawn) [Compound 211] |
| 11.2 | < 100 | COc1cc(-c2ccc(NC3(C(=O)O)CCOCC3)cc2COC2(C)CCCC2)c(C)c(OC)c1C [Compound 212] |
| 58.7 | < 100 | CCOC1CC(Nc2ccc(-c3cc(OC)c(C)c(OC)c3C)c(COC3CCCC3)c2)(C(=O)O)C1 (stereo not drawn) [Compound 213] |
| 58.9 | < 100 | CCOC1CC(Nc2ccc(-c3cc(OC)c(C)c(OC)c3C)c(COC3CCCC3)c2)(C(=O)O)C1 (stereo not drawn) [Compound 214] |
| 10.8 | < 100 | COc1cc(-c2ccc(NC3(C(=O)O)CCOCC3)cc2COC2CCCC2)c(C(F)F)c(OC)c1C [Compound 215] |
| > 10000 | > 1000 | COc1cc(-c2ccc(NC3(C(=O)O)CCOCC3)cc2COC2CCCC2)cc(O)n1 [Compound 218] |
| 58 | < 100 | COc1cc(-c2ccc(NC3(C(=O)O)CCOCC3)cc2COC2CCC3(CC3)C2)cc(OC)c1C (stereo not drawn) [Compound 219] |
| 81.6 | 100 to 1000 | COc1cc(-c2ccc(NC3(C(=O)O)CCOCC3)cc2COC2CCCC2)c(OC)c(OC)c1C [Compound 220] |
| 167 | 100 to 1000 | COc1cc(OC)c(F)c(-c2ccc(OC3(C(=O)O)CCOCC3)cc2COC2CCCC2)c1 [Compound 222] |
| 320 | 100 to 1000 | COc1cc(-c2ccc(NC3(C(=O)O)C[C@@H](C)O[C@@H](C)C3)cc2COC2CCCC2)c(F)c(OC)c1C (stereo partly drawn) [Compound 225, (2R,6S)-4-((2-((cyclopentyloxy)methyl)-2′-fluoro-3′,5′-dimethoxy-4′-methyl-[1,1′-biphenyl]-4-yl)amino)-2,6-dimethyltetrahydro-2H-pyran-4-carboxylic acid] |

| IC50 [1] [nM] | IC50 [2] [nM] | SMILES |
| --- | --- | --- |
| 22.2 | < 100 | COc1cc(OC)c(F)c(-c2ccc(NC3(C(=O)O)CCOCC3)cc2COC2CCCC2)c1 [Compound 226] |
| 25 | < 100 | COc1cc(-c2ccc(NC3(C(=O)O)CCOCC3)c(F)c2COC2CCCC2)c(F)c(OC)c1C [Compound 227] |
| 2.63 | < 100 | COc1cc(OC)c(F)c(-c2ccc(NC3(C(=O)O)CCOCC3)cc2CCC2CCCC2)c1 [Compound 228] |
| 5.28 | < 100 | CCOc1cccc(-c2ccc(NC3(C(=O)O)CCOCC3)cc2COC2CCCC2)c1C [Compound 229, 4-((2-((cyclopentyloxy)methyl)-3′-ethoxy-2′-methyl-[1,1′-biphenyl]-4-yl)amino)tetrahydro-2H-pyran-4-carboxylic acid] |
| 139 | 100 to 1000 | COc1cc(-c2ccc(OC3(C(=O)O)CCOCC3)cc2COC2CCCC2)c(Cl)c(OC)n1 [Compound 230] |
| 756 | 100 to 1000 | COc1cc(-c2ccc(OCC3(C(=O)O)CCOCC3)cc2COC2CCCC2)c(F)c(OC)c1C [Compound 232] |
| 914 | 100 to 1000 | COc1cc(-c2c(CC#N)cc(NC3(C(=O)O)CCOCC3)cc2COC2CCCC2)cc(OC)c1C [Compound 233] |
| 5190 | > 1000 | COc1cc(-c2ccc(C3(C(=O)O)CCOCC3)cc2COC2CCCC2)cc(OC)c1C [Compound 234] |
| 198 | 100 to 1000 | COc1cc(-c2ccc(C3(C(=O)O)CCOCC3)cc2COC2CCCC2)c(Cl)c(OC)c1C [Compound 235] |
| 4710 | > 1000 | COc1cc(-c2ccc(CC3(C(=O)O)CCOCC3)cc2COC2CCCC2)c(Cl)c(OC)c1C [Compound 236] |
| 970 | 100 to 1000 | COc1cc(-c2ccc(N(C)C3(C(=O)O)CCOCC3)cc2COC2CCCC2)c(F)c(OC)c1C [Compound 239] |
| 23.4 | < 100 | COc1cc(-c2ccc(NC3(C(=O)O)CCOCC3)cc2COC2CCCC2)c(F)c(C2CC2)c1 [Compound 240] |
| 82.9 | 100 to 1000 | COc1cc(-c2cc(F)c(NC3(C(=O)O)CCOCC3)cc2COC2CCCC2)c(F)c(OC)c1C [Compound 243] |
| 2.73 | < 100 | CCOc1cccc(-c2ccc(NC3(C(=O)O)CCOCC3)cc2COC2CCCC2)c1C(F)F [Compound 244] |
| 23.2 | < 100 | CCOc1cccc(-c2ccc(NC3(C(=O)O)CCOCC3)cc2COC2CCCC2)c1F [Compound 245, 4-((2-((cyclopentyloxy)methyl)-3′-ethoxy-2′-fluoro-[1,1′-biphenyl]-4-yl)amino)tetrahydro-2H-pyran-4-carboxylic acid] |
| 24.3 | < 100 | CCOc1cc(OC)cc(-c2ccc(OC3(C(=O)O)CCOCC3)cc2COC2CCCC2)c1F [Compound 246] |
| 1610 | > 1000 | COc1cc(-c2ccc(OC3(C(=O)O)CCOCC3)cc2CO[C@@H]2CCOC2)c(F)c(OC)c1C [Compound 247] |
| 1.13 | < 100 | COc1cc(OC2CC2)c(F)c(-c2ccc(NC3(C(=O)O)CCOCC3)cc2COC2CCCC2)c1 [Compound 249, 4-((2-((cyclopentyloxy)methyl)-3′-cyclopropoxy-2′-fluoro-5′-methoxy-[1,1′-biphenyl]-4-yl)amino)tetrahydro-2H-pyran-4-carboxylic acid] |
| 31.7 | < 100 | COc1cc(OC2CC2)cc(-c2ccc(NC3(C(=O)O)CCOCC3)cc2COC2CCCC2)c1F [Compound 250] |
| 40.2 | < 100 | COc1cc(C2CC2)cc(-c2ccc(NC3(C(=O)O)CCOCC3)cc2COC2CCCC2)c1F [Compound 251] |
| 54.3 | < 100 | COc1cc(-c2c(C)cc(NC3(C(=O)O)CCOCC3)cc2COC2CCCC2)nc(OC)c1C [Compound 253, 4-((3-((cyclopentyloxy)methyl)-4-(4,6-dimethoxy-5-methylpyridin-2-yl)-5-methylphenyl)amino)tetrahydro-2H-pyran-4-carboxylic acid] |
| 8.41 | < 100 | COc1cc(OC)c(Cl)c(-c2ccc(NC3(C(=O)O)CCOCC3)cc2COC2CCCC2)c1 [Compound 257] |
| 174 | 100 to 1000 | COc1cc(-c2ccc(OC3(C(=O)O)CCOCC3)cc2CCC2CCOC2)c(F)c(OC)c1C (stereo not drawn) [Compound 260] |
| 51.9 | < 100 | COc1cc(-c2ccc(NC3(C(=O)O)CCOCC3)cc2COC2CCCC2)c(Cl)c(OC)c1F [Compound 261] |
